Data from article PMC11440500, “A De Novo Metalloenzyme for Cerium Photoredox Catalysis” (Journal of the American Chemical Society, 2024).

Tested on: T1, PLZ1.4 (PhotoLanZyme 1.4)
T1 construct: de novo design; single-chain fusion of two TFD subunits via one Gly; active-site W6 and W175 removed, two active-site mutations, eight surface mutations (6x D to N, 2x E to Q); loaded with CeCl3
Assay: Michaelis-Menten kinetics of photocatalytic diol cleavage
Format: biochemical, synthetic construct
Details: CeCl3-loaded enzyme, visible light, aerobic, aqueous buffer

Km ((R,R) isomer per Figure 2F)	Km	SMILES
2.9 ± 0.4 mM	–	O[C@H](c1ccccc1)[C@H](O)c1ccccc1 [(R,R)-1]
–	5.5 ± 1 mM	OCC(Oc1ccccc1)C(O)c1ccccc1 (centres unmarked) [compound 24, lignin surrogate 24]
